Experimental data published in the NIST ThermoML archive (doi:10.1016/j.tca.2016.12.010).

Key:
[1] = xn = mol fraction of the nth substance listed; details: 94.9 kPa, Liquid, Vibrating tube method
[2] = refractive index (Na D-line) (dimensionless); xn = mol fraction of the nth substance listed; details: 94.9 kPa, Liquid, (Schmidt +Haensch) refractometer (Model DSR lambda)

CCCCCCCCO [octan-1-ol] + Cc1ccccc1
Details | mass density, [1] [kg/m3] | refractive index, [2]
293.15 K, x1 = 0.1041 | 859.2 | 1.48465
293.15 K, x1 = 0.1973 | 853.95 | 1.4763
293.15 K, x1 = 0.3018 | 848.87 | 1.4681
293.15 K, x1 = 0.4033 | 844.52 | 1.46072
293.15 K, x1 = 0.5035 | 840.66 | 1.45442
293.15 K, x1 = 0.6007 | 837.23 | 1.44894
293.15 K, x1 = 0.6996 | 834.03 | 1.44373
293.15 K, x1 = 0.793 | 831.2 | 1.43912
293.15 K, x1 = 0.9044 | 828.07 | 1.4338
293.15 K, x1 = 1 | 825.57 | 1.4295
298.15 K, x1 = 0.1041 | 854.47 | 1.48192
298.15 K, x1 = 0.1973 | 849.33 | 1.47333
298.15 K, x1 = 0.3018 | 844.4 | 1.46514
298.15 K, x1 = 0.4033 | 840.2 | 1.45795
298.15 K, x1 = 0.5035 | 836.46 | 1.45173
298.15 K, x1 = 0.6007 | 833.15 | 1.44634
298.15 K, x1 = 0.6996 | 830.05 | 1.44116
298.15 K, x1 = 0.793 | 827.33 | 1.43666
298.15 K, x1 = 0.9044 | 824.31 | 1.43178
298.15 K, x1 = 1 | 821.9 | 1.42748
303.15 K, x1 = 0.1041 | 849.63 | 1.47921
303.15 K, x1 = 0.1973 | 844.59 | 1.47041
303.15 K, x1 = 0.3018 | 839.8 | 1.46231
303.15 K, x1 = 0.4033 | 835.73 | 1.45514
303.15 K, x1 = 0.5035 | 832.13 | 1.44904
303.15 K, x1 = 0.6007 | 828.94 | 1.44377
303.15 K, x1 = 0.6996 | 825.95 | 1.43893
303.15 K, x1 = 0.793 | 823.32 | 1.43469
303.15 K, x1 = 0.9044 | 820.4 | 1.4298
303.15 K, x1 = 1 | 818.08 | 1.42561
308.15 K, x1 = 0.1041 | 844.83 | 1.47628
308.15 K, x1 = 0.1973 | 839.89 | 1.46762
308.15 K, x1 = 0.3018 | 835.26 | 1.45938
308.15 K, x1 = 0.4033 | 831.33 | 1.45234
308.15 K, x1 = 0.5035 | 827.86 | 1.44634
308.15 K, x1 = 0.6007 | 824.78 | 1.44118
308.15 K, x1 = 0.6996 | 821.9 | 1.43647
308.15 K, x1 = 0.793 | 819.36 | 1.43239
308.15 K, x1 = 0.9044 | 816.55 | 1.42757
308.15 K, x1 = 1 | 814.31 | 1.42369
313.15 K, x1 = 0.1041 | 840.03 | 1.47333
313.15 K, x1 = 0.1973 | 835.16 | 1.46463
313.15 K, x1 = 0.3018 | 830.67 | 1.45656
313.15 K, x1 = 0.4033 | 826.9 | 1.44956
313.15 K, x1 = 0.5035 | 823.56 | 1.44362
313.15 K, x1 = 0.6007 | 820.6 | 1.43864
313.15 K, x1 = 0.6996 | 817.82 | 1.43413
313.15 K, x1 = 0.793 | 815.37 | 1.43002
313.15 K, x1 = 0.9044 | 812.65 | 1.42559
313.15 K, x1 = 1 | 811.09 | 1.42169
318.15 K, x1 = 0.1041 | 835.18 | 1.47014
318.15 K, x1 = 0.1973 | 830.43 | 1.46186
318.15 K, x1 = 0.3018 | 826.08 | 1.45372
318.15 K, x1 = 0.4033 | 822.45 | 1.44685
318.15 K, x1 = 0.5035 | 819.25 | 1.44101
318.15 K, x1 = 0.6007 | 816.41 | 1.43601
318.15 K, x1 = 0.6996 | 813.74 | 1.43149
318.15 K, x1 = 0.793 | 811.38 | 1.4277
318.15 K, x1 = 0.9044 | 808.77 | 1.42342
318.15 K, x1 = 1 | 807.7 | 1.41973
323.15 K, x1 = 0.1041 | 831.72 | 1.46755
323.15 K, x1 = 0.1973 | 827.05 | 1.45882
323.15 K, x1 = 0.3018 | 822.76 | 1.45094
323.15 K, x1 = 0.4033 | 819.26 | 1.44415
323.15 K, x1 = 0.5035 | 816.18 | 1.43836
323.15 K, x1 = 0.6007 | 813.46 | 1.43341
323.15 K, x1 = 0.6996 | 810.87 | 1.42902
323.15 K, x1 = 0.793 | 808.58 | 1.42541
323.15 K, x1 = 0.9044 | 806.05 | 1.42136
323.15 K, x1 = 1 | 804.05 | 1.41783
333.15 K, x1 = 0.1041 | 822.45 | 1.46181
333.15 K, x1 = 0.1973 | 817.92 | 1.45314
333.15 K, x1 = 0.3018 | 813.92 | 1.44526
333.15 K, x1 = 0.4033 | 810.68 | 1.43873
333.15 K, x1 = 0.5035 | 807.88 | 1.43312
333.15 K, x1 = 0.6007 | 805.4 | 1.42831
333.15 K, x1 = 0.6996 | 803.05 | 1.42423
333.15 K, x1 = 0.793 | 800.97 | 1.42094
333.15 K, x1 = 0.9044 | 798.68 | 1.41714
333.15 K, x1 = 1 | 796.88 | 1.41407

C1COCCN1 [tetrahydro-1,4-oxazine] + CCCCCCCCCCO
Details | mass density, 293.15 K [kg/m3] | mass density, 303.15 K [kg/m3] | mass density, 313.15 K [kg/m3] | mass density, 323.15 K [kg/m3] | mass density, 333.15 K [kg/m3] | refractive index, 293.15 K | refractive index, 303.15 K | refractive index, 313.15 K | refractive index, 323.15 K | refractive index, 333.15 K
[1], x1 = 0.0959 | 842.65 | 835.47 | 828.35 | 821.08 | 813.99 | – | – | – | – | –
[1], x1 = 0.1972 | 856.26 | 849.05 | 841.76 | 834.65 | 827.15 | – | – | – | – | –
[1], x1 = 0.2983 | 870.74 | 863.32 | 855.74 | 848.36 | 840.7 | – | – | – | – | –
[1], x1 = 0.3997 | 886.54 | 878.86 | 870.94 | 863.25 | 855.26 | – | – | – | – | –
[1], x1 = 0.4984 | 902.71 | 894.8 | 886.64 | 878.61 | 870.39 | – | – | – | – | –
[1], x1 = 0.5901 | 918.62 | 910.46 | 902.16 | 894.03 | 885.58 | – | – | – | – | –
[1], x1 = 0.6748 | 933.78 | 925.53 | 916.99 | 908.75 | 900.13 | – | – | – | – | –
[1], x1 = 0.7975 | 957.46 | 948.96 | 940.35 | 931.54 | 922.67 | – | – | – | – | –
[1], x1 = 0.9053 | 980.12 | 971.33 | 961.51 | 952.35 | 943.05 | – | – | – | – | –
[1], x1 = 1 | 999.54 | 989.89 | 979.82 | 969.78 | 959.74 | – | – | – | – | –
[2], x1 = 0.0959 | – | – | – | – | – | 1.43851 | 1.43425 | 1.43051 | 1.42665 | 1.42296
[2], x1 = 0.1971 | – | – | – | – | – | 1.44011 | 1.43584 | 1.43195 | 1.42808 | 1.42408
[2], x1 = 0.2983 | – | – | – | – | – | 1.44177 | 1.4374 | 1.43335 | 1.42935 | 1.4252
[2], x1 = 0.3997 | – | – | – | – | – | 1.44353 | 1.43915 | 1.43498 | 1.43086 | 1.42655
[2], x1 = 0.4984 | – | – | – | – | – | 1.44523 | 1.4408 | 1.43652 | 1.43224 | 1.4278
[2], x1 = 0.5901 | – | – | – | – | – | 1.44686 | 1.44235 | 1.43799 | 1.43378 | 1.42913
[2], x1 = 0.6748 | – | – | – | – | – | 1.44835 | 1.44395 | 1.43952 | 1.43524 | 1.4304
[2], x1 = 0.7975 | – | – | – | – | – | 1.45055 | 1.44625 | 1.4419 | 1.43735 | 1.43224
[2], x1 = 0.9053 | – | – | – | – | – | 1.45253 | 1.44834 | 1.44365 | 1.43915 | 1.43382
[2], x1 = 1 | – | – | – | – | – | 1.45453 | 1.45031 | 1.44574 | 1.44113 | 1.43562
